{
  "source": "paper PMC8111499",
  "about": "“GW117: A novel serotonin (5‐HT2C) receptor antagonist and melatonin (MT1/MT2) receptor agonist with potential antidepressant‐like activity in rodents” (CNS Neuroscience & Therapeutics, 2021)",
  "key": {"[1]": {"target": "T1, 5‐HT2C receptor (Rattus norvegicus, UniProt P08909)", "T1 construct": "5‐HT2C receptor membrane protein was extracted from rat hippocampus and a stably transfected HEK293 cell line; from tissue; host or cells: rat hippocampus", "T1 sequence (P08909 33-460)": "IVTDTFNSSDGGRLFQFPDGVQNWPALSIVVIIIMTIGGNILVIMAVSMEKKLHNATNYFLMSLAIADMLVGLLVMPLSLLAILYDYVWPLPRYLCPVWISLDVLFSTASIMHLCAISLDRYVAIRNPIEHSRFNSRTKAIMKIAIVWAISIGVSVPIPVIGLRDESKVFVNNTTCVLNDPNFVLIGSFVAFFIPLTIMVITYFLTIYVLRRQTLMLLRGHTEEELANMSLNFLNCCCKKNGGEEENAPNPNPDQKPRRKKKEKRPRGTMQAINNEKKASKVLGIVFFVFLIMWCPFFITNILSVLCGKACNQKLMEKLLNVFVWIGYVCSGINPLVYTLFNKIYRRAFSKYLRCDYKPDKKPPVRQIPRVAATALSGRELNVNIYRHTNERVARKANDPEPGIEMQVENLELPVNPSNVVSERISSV", "assay": "5‐HT2C receptor binding assay ([3H]‐LSD competition)", "conditions": "mean ± SEM, three independent experiments", "experimental": "Hippocampal membrane preparations were obtained using previously described methods. ^24 , ^25 , ^26 Briefly, rats were decapitated and their brains were rapidly removed. Next, the hippocampus was dissected and subsequently homogenized in 40 volumes of ice‐cold buffer (50 mM Tris‐HCl Buffer, pH 7.4) and then centrifuged at 40,000 × g at 4°C for 10 min. The particles were re‐suspended and centrifuged again. In order to remove endogenous monoamines, the final suspension was incubated at 37°C for 20 min and then centrifuged as usual. The final pellets were frozen at −80°C at once for up to 1 week.\nHuman MT1/MT2 receptor membrane proteins were obtained from Perkin‐Elmer (ES‐620 [MT1] and ES‐621 [MT2]). The stably transfected 5‐HT2C receptor HEK293 cell line was prepared using a nucleus‐cytoplasm‐membrane preparation kit (Applagin Technologies Inc.). Briefly, cells were harvested at 4°C, 110 00 × g and centrifugation for 5 min. Homogenize pellets in the assay buffer (50 mM Tris‐HCl buffer containing 120 mM NaCl and 5 mM KCl, pH 7.4) and then centrifuged twice at 4°C, 36,000 × g for 15 min. […]\nReceptor membrane protein, 5‐HT2C (50 μl), was added to all the tubes. Non‐specific binding was determined by the presence of unlabeled 10 μM 5‐HT and pre‐reacted for 30 min. […] Finally, 1 ml of scintillation fluid was added and the radioactive intensity measured by liquid scintillation counting."}, "[2]": {"target": "T2, MT1 receptor (Homo sapiens, UniProt P48039)", "T2 construct": "purchased Perkin‐Elmer ES‐620", "T2 sequence (P48039 whole entry)": "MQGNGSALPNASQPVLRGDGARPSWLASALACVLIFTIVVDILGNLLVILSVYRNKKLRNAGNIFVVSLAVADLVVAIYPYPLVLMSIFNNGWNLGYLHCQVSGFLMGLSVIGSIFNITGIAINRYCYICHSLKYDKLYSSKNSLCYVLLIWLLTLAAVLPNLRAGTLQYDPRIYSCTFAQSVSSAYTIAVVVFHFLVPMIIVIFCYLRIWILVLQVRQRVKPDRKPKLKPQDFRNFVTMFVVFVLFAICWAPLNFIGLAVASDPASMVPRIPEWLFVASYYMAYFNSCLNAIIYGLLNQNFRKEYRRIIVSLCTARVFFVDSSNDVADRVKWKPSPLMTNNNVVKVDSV", "assay": "[35S]‐GTPγS binding assay, MT1", "assay_type": "biochemical", "conditions": "[35S]‐GTPγS binding; read-out: maximal increase over basal binding (% Emax), MT1 receptor", "experimental": "(§1) This experiment was mentioned earlier. ^27 In short, HEK293 cell membrane stably expressing human 5‐HT2C receptors or rat hippocampal tissue membrane or MT1/MT2 receptors was re‐suspended in buffer (50 mmol/L Tris, 100 mmol/L NaCl, 5 mmol/L MgCl2·6H2O, 0.1 mmol/L EDTA‐Na2·6H2O, 0.2 mmol/L EGTA, pH 7.4) and incubated with the test compound (100 μM GDP, 0.2 nM [^35S]‐GTP, or [^3H]PIP) for 60 min at 28℃. At the end of the experiment, Whatman GF/C filters pre‐soaked with distilled water were used for rapid filtration followed by washing with 5 ml of ice‐cold Tris buffer. Determination of non‐specific binding in the presence of GTPγS and radioactivity was measured by liquid scintillation counting. Calculation of the concentration produces a half‐maximal effect (EC50) and the maximal increase above the baseline value."}, "[3]": {"target": "T3, MT2 receptor (Homo sapiens, UniProt P49286)", "T3 construct": "purchased Perkin‐Elmer ES‐621", "T3 sequence (P49286 1-362)": "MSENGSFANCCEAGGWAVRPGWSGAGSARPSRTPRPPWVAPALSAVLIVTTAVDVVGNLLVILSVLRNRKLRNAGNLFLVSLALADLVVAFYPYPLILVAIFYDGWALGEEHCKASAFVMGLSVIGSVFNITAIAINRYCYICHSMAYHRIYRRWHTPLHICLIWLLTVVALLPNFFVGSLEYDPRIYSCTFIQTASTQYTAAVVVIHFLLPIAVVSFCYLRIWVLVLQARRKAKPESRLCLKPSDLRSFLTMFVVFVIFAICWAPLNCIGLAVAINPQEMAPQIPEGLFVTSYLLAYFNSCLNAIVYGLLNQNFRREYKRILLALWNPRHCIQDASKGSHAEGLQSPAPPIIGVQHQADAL", "assay": "[35S]‐GTPγS binding assay, MT2", "assay_type": "biochemical", "conditions": "[35S]‐GTPγS binding; read-out: maximal increase over basal binding (% Emax), MT2 receptor", "experimental": "as §1"}, "[4]": {"test_system": "mice", "assay": "Tail suspension test in mice", "assay_type": "in vivo, ICR mice", "conditions": "oral, 10, 20 or 40 mg/kg, vs. vehicle", "experimental": "The tail suspension test (TST) was conducted as described earlier. ^28 , ^29 Eighty naive mice were randomly divided into eight treatment groups (n = 10/group). All mice received a single dose of the drug (p.o.). After 60 min of gavage administration, mice were suspended from the top of the apparatus (25 × 25 × 35 cm) using tape about 1 cm from the tail tip. The duration of immobility was recorded in the last 4 min for a total of 6 min. When mice are passively suspended immobile, they are judged to be stationary."}, "[5]": {"test_system": "rats", "assay": "Forced swimming test in rats", "assay_type": "in vivo, Sprague Dawley (SD) rats", "conditions": "oral, 40 mg/kg", "experimental": "The forced swimming test (FST) was conducted as described earlier. ^30 Eighty naive rats were randomized into eight treatment groups (n = 9‐12/group). All rats received a single drug administration (p.o.). The procedure consisted of two sessions, to be specific, a pre‐test session and a test session. A cylindrical container (diameter, 20 cm; height, 40 cm; including 30 cm of water and kept at 25℃) was used. During the pre‐test phase, rats were required to perform forced swimming for 15 min. The test session was performed 24 h later, put the rats in the same cylindrical container for 5 min and immobility duration over 5 min recorded. […] Rats were considered immobile when they entered a floating posture, specifically, immobile, passive, and with their heads above water."}, "[6]": {"test_system": "CUS rats", "assay": "Novelty‐suppressed feeding test in the CUS model", "assay_type": "in vivo", "conditions": "chronic, 10 mg/kg", "experimental": "In order to further examine the antidepressant effects of GW117, chronic unpredictable stress (CUS) model was utilized; the methods were as described before. ^29 , ^31 After 1 week of training, rats underwent sucrose training of 48 h. After training, a sucrose baseline test was performed. […] Gastric gavage was given 1 h before the stress (08:00–09:00). Except for the non‐stressed group, all rats were stimulated by a series of stressors. stress methods included the following: fast on food and water (24 h), moisture cage (150 g sawdust bedding in 200 ml water), overnight illumination, low‐intensity strobe illumination (100 flashes/min), forced swimming (5 min at 10℃), white noise (110 dB), tail pinch (1 cm from tail root, 6 min), 45℃ cage tilt, and restraint (1–2 h). Stressors need to be used continuously and randomly. Non‐stressed rats received free food and water, but were required to fast for 14 h before sucrose preference test. After 4 weeks of stress, the sucrose preference test (SPT) (on day 25), open field test (OFT) (on day 28), and novelty‐suppressed feeding (NSF) test (on day 29) were carried out. […]"}, "[7]": {"test_system": "mice", "assay": "Learned helplessness paradigm in mice", "assay_type": "in vivo, ICR mice", "conditions": "sub‐chronic (4 days), 10 mg/kg ig., after inescapable shock training", "experimental": "For 4 consecutive days, mice were putted into the shuttle box device (40 × 10 × 13 cm), the device was splited into two compartments, and mice could free access. In the IS group, each mouse received 360 inescapable shocks (current intensity 0.30 mA, duration 2 s, 3‐13 s variable interval, about 1 h) over four consecutive training days. Animals in the NIS group underwent the same handling without receiving the foot shocks. 10 trials were conducted on mice to screen helpless, each of which includes conditioned stimulation period (3‐s lamp on), non‐conditioned stimulation period (3‐s lamp +shock), and interval period (without any stimulus, 25 s). […] The EF values were balanced for each group in the experiment. Using Graphic State software (Coulbourn Instruments Inc.,) recorded the number of escape failures and the latency to escape."}, "[8]": {"design": "method as in PMID 31657152", "conditions": "single dose; cited from earlier work"}},
  "data": [
    {"smiles": "COc1ccc2cccc(CCNC(C)=O)c2c1", "note": "[Agomelatine, reference compound]", "values": [
      {"measurement": "Ki", "setting": "[1]", "value": "0.64 ± 0.25", "unit": "nM"},
      {"measurement": "Emax", "setting": "[2]", "value": "94 ± 7.34", "unit": "%"},
      {"measurement": "Emax", "setting": "[3]", "value": "101 ± 4.56", "unit": "%"},
      {"measurement": "immobility time in TST", "setting": "[4]", "value": "had no effect on immobility time"},
      {"measurement": "immobility time in FST", "setting": "[5]", "value": "significantly decreased the immobility time"},
      {"measurement": "feeding latency in NSF test", "setting": "[6]", "value": "not effective"}
    ]},
    {"smiles": "CNCCC(Oc1ccc(C(F)(F)F)cc1)c1ccccc1", "note": "(stereo not drawn) [Fluoxetine, reference compound]", "values": [
      {"measurement": "deficit of avoidance behavior (escape latency and number of escape failures)", "setting": "[7]", "value": "significantly reversed the deficit of avoidance behavior"}
    ]},
    {"smiles": "CNC1(c2ccccc2Cl)CCCCC1=O", "note": "(stereo not drawn) [ketamine]", "values": [
      {"measurement": "duration of rapid antidepressant response", "setting": "[8]", "value": "at least three"},
      {"measurement": "mean onset time of rapid antidepressant response", "setting": "[8]", "value": "four"}
    ]}
  ]
}
